Converted amounts (≈) assume the structure as drawn.
Assays:
[1] = Inhibition of calcium ionophore A23187-stimulated LTB4 release in C57BL/6 mouse model at 10 mg/kg, po bid measured after 2 hrs; assay type: functional
[2] = in vivo; conditions: C57BL/6, mouse, po, 10 mg/kg
[3] = in vivo; conditions: C57BL/6, mouse, po, 10 mg/kg; remark: listed apart in the source
[4] = physchem; conditions: octanol/water, pH 7.4
[5] = physchem; conditions: buffer, pH 6.8
[6] = in vitro; conditions: dog, MDCK
[7] = in vitro; conditions: mouse, liver microsomes
[8] = in vitro; conditions: rat, liver microsomes
[9] = in vitro; conditions: human, liver microsomes
[10] = molecular target: T1, Voltage-gated inwardly rectifying potassium channel KCNH2 (Homo sapiens, UniProt Q12809)
T1 sequence (Q12809 whole entry): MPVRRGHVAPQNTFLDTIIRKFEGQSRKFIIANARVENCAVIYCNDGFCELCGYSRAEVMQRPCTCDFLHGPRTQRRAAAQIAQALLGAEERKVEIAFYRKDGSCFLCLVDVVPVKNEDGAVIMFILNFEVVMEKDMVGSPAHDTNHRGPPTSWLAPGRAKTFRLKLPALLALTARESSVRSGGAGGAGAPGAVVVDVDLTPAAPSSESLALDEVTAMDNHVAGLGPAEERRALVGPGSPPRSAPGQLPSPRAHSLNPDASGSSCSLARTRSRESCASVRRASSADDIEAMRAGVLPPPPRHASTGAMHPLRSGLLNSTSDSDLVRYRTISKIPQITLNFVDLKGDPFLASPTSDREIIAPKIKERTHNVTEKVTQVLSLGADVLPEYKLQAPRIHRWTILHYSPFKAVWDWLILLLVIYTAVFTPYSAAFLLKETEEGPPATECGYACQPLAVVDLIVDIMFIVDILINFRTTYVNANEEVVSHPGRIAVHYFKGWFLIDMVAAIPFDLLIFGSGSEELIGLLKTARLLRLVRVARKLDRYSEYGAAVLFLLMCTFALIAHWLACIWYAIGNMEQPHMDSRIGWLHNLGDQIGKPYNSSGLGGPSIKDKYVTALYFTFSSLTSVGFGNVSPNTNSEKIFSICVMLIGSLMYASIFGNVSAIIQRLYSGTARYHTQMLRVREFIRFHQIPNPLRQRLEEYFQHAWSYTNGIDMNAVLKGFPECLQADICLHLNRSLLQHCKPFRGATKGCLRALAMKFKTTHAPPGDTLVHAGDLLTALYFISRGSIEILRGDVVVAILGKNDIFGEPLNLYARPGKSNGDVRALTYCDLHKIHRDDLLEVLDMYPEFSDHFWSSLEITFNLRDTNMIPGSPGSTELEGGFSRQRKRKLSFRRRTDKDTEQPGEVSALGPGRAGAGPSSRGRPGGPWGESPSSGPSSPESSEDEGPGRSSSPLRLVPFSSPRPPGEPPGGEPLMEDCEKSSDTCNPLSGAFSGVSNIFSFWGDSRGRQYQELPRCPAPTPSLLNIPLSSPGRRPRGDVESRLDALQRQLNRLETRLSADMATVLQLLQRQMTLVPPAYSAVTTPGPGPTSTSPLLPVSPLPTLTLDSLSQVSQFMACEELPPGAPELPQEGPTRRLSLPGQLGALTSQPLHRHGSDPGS

[11] = molecular target: T1, Voltage-gated inwardly rectifying potassium channel KCNH2; remark: listed apart in the source
[12] = molecular target: T1, Voltage-gated inwardly rectifying potassium channel KCNH2; remark: listed apart in the source
[13] = in vivo; conditions: Sprague-Dawley, rat, iv, 1 mg/kg
[14] = in vivo; conditions: Sprague-Dawley, rat, iv, 1 mg/kg; remark: listed apart in the source
[15] = in vivo; conditions: Sprague-Dawley, rat, iv, 1 mg/kg; remark: listed apart in the source
[16] = in vivo; conditions: Sprague-Dawley, rat, po, 3 mg/kg
[17] = in vivo; conditions: Sprague-Dawley, rat, iv, 1 mg/kg; remark: listed apart in the source
[18] = in vivo; conditions: Sprague-Dawley, rat, iv, 1 mg/kg; remark: listed apart in the source
[19] = in vivo; conditions: Sprague-Dawley, rat, iv, 1 mg/kg; remark: listed apart in the source
[20] = physchem
[21] = molecular target: T2, Leukotriene A-4 hydrolase (Homo sapiens, UniProt P09960); assay: Inhibition of LTA4H (unknown origin)
T2 sequence (P09960 whole entry): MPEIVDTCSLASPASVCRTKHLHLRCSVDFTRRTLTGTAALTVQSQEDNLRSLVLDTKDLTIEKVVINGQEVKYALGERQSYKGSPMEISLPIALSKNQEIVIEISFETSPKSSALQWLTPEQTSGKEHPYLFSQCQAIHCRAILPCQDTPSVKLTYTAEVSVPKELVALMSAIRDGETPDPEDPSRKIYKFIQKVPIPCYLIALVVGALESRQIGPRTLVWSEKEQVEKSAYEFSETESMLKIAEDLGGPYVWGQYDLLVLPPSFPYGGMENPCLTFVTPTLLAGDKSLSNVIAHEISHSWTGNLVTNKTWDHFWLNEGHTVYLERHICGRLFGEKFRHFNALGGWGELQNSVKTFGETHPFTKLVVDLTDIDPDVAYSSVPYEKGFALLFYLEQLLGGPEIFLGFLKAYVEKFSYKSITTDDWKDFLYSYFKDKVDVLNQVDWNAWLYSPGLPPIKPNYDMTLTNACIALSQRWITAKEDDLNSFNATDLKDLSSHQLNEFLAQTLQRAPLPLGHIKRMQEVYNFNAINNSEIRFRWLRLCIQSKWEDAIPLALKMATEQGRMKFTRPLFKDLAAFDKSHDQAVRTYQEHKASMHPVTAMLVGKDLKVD

[22] = molecular target: T2, Leukotriene A-4 hydrolase; assay: Inhibition of LTA4H in human blood assessed as LTB4 production; assay type: tissue-based

Compound | logD [4] | solubility [5] [µM] | Papp A→B [6] [×10⁻⁶ cm/s] | microsomal CLint [7] [µL/min/mg] | microsomal CLint [8] [µL/min/mg] | microsomal CLint [9] [µL/min/mg] | IC50 [10] [µM] | IC50 [11] [µM] | clearance [13] [mL/min/kg] | Vd [14] [L/kg] | MRT [15] [h] | AUC(0-inf) [16] [µM·h] | bioavailability [17] [%] | Cmax [18] [nM] | concentration at 24 h [19] [nM] | other results
N[C@@H](CC(=O)O)Cn1nnc(-c2ccc(Oc3ncc(Cl)cc3F)cc2)n1 | 0.5 | 620 (≈ 244 µg/mL) | 1.8 | < 25 | < 25 | < 25 |  |  |  |  |  |  |  |  |  | inhibition in vivo at 10 mg/kg [1]: 97%; concentration at 2 h ([2]; in vivo): 1290 nM; concentration at 24 h ([3]; in vivo): 184 nM
N[C@H](CO)Cc1nc(-c2ccc(Oc3ccc(-c4cc[nH]n4)cn3)cc2)no1 | 1.8 | 870 (≈ 329 µg/mL) | 9 | 29 | < 25 | < 25 | > 30 | > 30 | 16 | 21 | 23 | 4.2 | 49 | 403 | 23 | IC50 [12]: > 100 µM; concentration at 2 h ([2]; blood): 800 nM; concentration at 24 h ([3]; blood): 116 nM
Cc1ccc(Oc2ccc(-c3nnn(CCN)n3)cc2)cc1 | 3 | 30 (≈ 8.86 µg/mL) | 34 | 246 | 266 | 396 | 6 |  |  |  |  |  |  |  |  | 
N[C@@H](CCO)Cn1nnc(-c2ccc(Oc3ncc(Cl)cc3F)cc2)n1 |  |  | 23 |  |  |  |  |  |  |  |  |  |  |  |  | 
N[C@H](CO)Cn1nnc(-c2ccc(Oc3ncc(Cl)cc3F)cc2)n1 | 2.3 | > 1000 | 28 | < 25 | < 25 | < 25 | > 30 | 30 | 9 | 3 | 5.3 | 14.7 | 100 | 1300 | 52 | IC50 [12]: 28 µM; concentration at 2 h ([2]; blood): 2980 nM; concentration at 24 h ([3]; blood): 134 nM; pKa [20]: 7.1
N[C@@H](CO)Cn1nnc(-c2ccc(Oc3ncc(Cl)cc3F)cc2)n1 | 2.3 | 520 (≈ 190 µg/mL) | 25 | < 25 | < 25 | < 25 | > 30 | > 30 | 134 | 36 | 4.5 | 0.369 | 37 | 42 | 2 | pKa [20]: 7.1
CC(=O)N[C@H]1C[C@H]2CC[C@@H](C1)N2Cc1ccc(Oc2nc3ncccc3s2)cc1 |  |  |  |  |  |  |  |  |  |  |  |  |  |  |  | IC50 [21]: 0.003 µM; IC50 [22]: 0.042 µM
N[C@H](CCO)Cn1nnc(-c2ccc(Oc3ncc(Cl)cc3F)cc2)n1 | 2.4 | 580 (≈ 220 µg/mL) | 21 | 145 | 94 | 40 | > 30 |  |  |  |  |  |  |  |  | 
O=C(O)c1ccc(CN2C[C@@H]3C[C@H]2CN3Cc2ccc(Oc3ccc(-c4ncco4)cc3)cc2)cc1 [ACEBILUSTAT] |  |  |  |  |  |  |  |  |  |  |  |  |  |  |  | IC50 [21]: 0.003 µM; IC50 [22]: 0.135 µM

— ChEMBL document CHEMBL5375967 (J Med Chem, 2023)
